According to US20240352418A1, “METHOD FOR PRODUCING MULTINUCLEATED MEGAKARYOCYTE WITH ENHANCED PLATELET PRODUCTION CAPABILITY, METHOD FOR PRODUCING PLATELETS, METHOD FOR PRODUCING PLATELET PREPARATION, AND METHOD FOR PRODUCING BLOOD PREPARATION” (Megakaryon Corporation, priority 2021, published 2024):

Legend:
[1] = system: multinucleated megakaryocytes induced from immortalized megakaryocyte cell line (MKCL); experiment: Size and expansion of multinucleated megakaryocytes after BSA fractionation (FSC, phase-contrast microscope); type: cell-based, human; details: F1 fraction, phase-contrast images, FIG. 4; AZ191 1 μmol/L and blebbistatin 10 μmol/L added together to GNF351 + Y-39983 (1B vs 1A); harmine 5 μmol/L added on top (Example 1 vs 1B)
Description: Multinucleation was induced by culturing the immortalized megakaryocyte cell line obtained in Example 1(1) in the same manner as in Example 1(2). The obtained multinucleated megakaryocytes were fractionated according to the size of multinucleated megakaryocytes using bovine serum albumin. Specifically, a three-way stopcock was attached to a 50-ml injection syringe with a plunger removed, and the syringe was fixed with a clamp with a leading end of the tube facing downward. A 30% (w/v) albumin solution (derived from bovine serum, fatty acid free, Fujifilm Wako Pure Chemical Corporation #017-22231) was diluted with 1×HBSS (ThermoFisher #14175095) to prepare 2%, 4%, and 16% BSA solutions, and 16% (10 ml), 4% (4 ml), 2% (4 ml), and 0% (2 ml) solutions were layered in the above syringe in the stated order. A cell suspension containing 75×10^5 multinucleated megakaryocyte cells prepared using 2 ml of HBSS was then applied and allowed to stand for 50 minutes, so that the cells were settled under natural gravity. Then, the three-way stopcock was loosened, and the cells were collected by dropping droplets thereof. As a result, the cell population containing the multinucleated megakaryocytes was fractionated into fractions 1 to 4 (F1 to F4). Regarding the multinucleated megakaryocytes of each fraction, the number of sets of chromosomes (N) was analyzed in the same manner as in Example 1(3) above (Example 1). […]
After the fractionation, platelets were produced from multinucleated megakaryocytes by culturing the multinucleated megakaryocytes in the production culture medium excluding DOX. […] After the culturing, regarding the cell suspension containing platelets, the amount of platelets produced per megakaryocyte was calculated in the same manner as in Example 1(4).

[2] = system: immortalized megakaryocyte cell line (MKCL); experiment: Degree of multinucleation (number of sets of chromosomes, PI staining, flow cytometer); type: cell-based, human; details: cultured 3 days with DOX; FIG. 1; harmine alone 10 μmol/L in growth medium (control 2); Example 1 = multinucleation culture medium; vs control 1 (growth medium)
Method: Next, multinucleation of immortalized megakaryocytes was induced by culturing, in a culture medium to which an AhR inhibitor, a ROCK inhibitor, a DYRK inhibitor, a myosin 2 inhibitor, and harmine were added in addition to DOX. Specifically, the immortalized megakaryocyte cell line obtained in Example 1(1) was suspended in a multinucleation culture medium below, to 3.0×10^5 cells/ml. Then, the cells were seeded on a 6-well dish at 2 mL/well, or on a 125-mL Erlenmeyer Flask at 25 mL/flask, and cultured while being shaken at 100 rpm for 3 days. The culture conditions were set to 37° C. and 5% CO2. […]
The cell suspension obtained after the culturing was collected, and the number of sets of chromosomes in the cell suspension and the size of the cells were measured using a flow cytometer. […] As for the obtained results, the number of sets of chromosomes (N) contained in megakaryocytes and the size of the cells was analyzed based on FSC and PI staining intensity (Example 1). […]
The nuclear phases of the multinucleated megakaryocytes obtained using the method for producing multinucleated megakaryocytes according to the present invention were examined. […] As for the obtained results, the number of sets of chromosomes (N) contained in megakaryocytes and the size of the cells was analyzed based on FSC and PI staining intensity. […]

Compound | expansion of multinucleated megakaryocytes [1] | degree of multinucleation (nuclear phases detected) [2]
COc1cc(N2CCN(C)CC2)ccc1Nc1nccc(-c2cn(C)c3cnccc23)n1 [AZ191, N-[2-methoxy-4-(4-methyl-1-piperazinyl)phenyl]-4-(1-methyl-1H-pyrrolo [2,3-c]pyridin-3-yl)-2-pyrimidinamine] | facilitated expansion of multinucleated megakaryocytes | 
Cc1ccc2c(c1)C(=O)C1(O)CCN(c3ccccc3)C1=N2 (stereo not shown) [blebbistatin, 3a-hydroxy-6-methyl-1-phenyl-2,3-dihydropyrrolo[2,3-b]quinolin-4-one] | facilitated expansion of multinucleated megakaryocytes | 
COc1ccc2c(c1)[nH]c1c(C)nccc12 [harmine, 7-methoxy-1-methyl-9H-pyrido[3,4-b]indole] | no effect | 32N multinucleated megakaryocytes were slightly detected
